Consider eleven compounds from PubChem BioAssay AID1344 (Sanford-Burnham Center for Chemical Genomics, 2008).

The subject of the experiment is CSM14.1 thapsigargin death, annexin V/PI flow, 24 h. Briefly: rescue from thapsigargin-induced apoptotic death, late-stage follow-up, orthogonal assay for ER stress death inhibitor project, cell-based, undifferentiated CSM14.1, flow cytometry (AID 1344). As to conditions: at 25 µM; stronger effect = higher value.
Turning to `CCCOc1ccc(C2Nc3ccccc3NC3=C2C(=O)CC(c2ccc(OC)c(OC)c2)C3)cc1` (stereo unspecified), the survival was 92%. Regarding `COc1ccc(C2CC(=O)C3=C(C2)Nc2ccccc2NC3c2cccc(C(F)(F)F)c2)cc1OC` (stereo unspecified), the survival was 95%. Consider `COc1ccc(C2CC(=O)C3=C(C2)Nc2ccccc2NC3c2cccc(Oc3ccccc3)c2)cc1OC` (stereo unspecified), for which the survival was 95%. Turning to `CC1(C)CC(=O)C2=C(C1)Nc1ccccc1NC2c1ccc(-c2ccccc2)cc1` (stereo unspecified), the survival is 97%. Consider `CCOc1cc(C2Nc3ccccc3NC3=C2C(=O)CC(c2ccc(OC)cc2)C3)cc(Cl)c1O` (stereo unspecified), for which the survival is 93%. On to `COc1ccc(C2CC(=O)C3=C(C2)Nc2ccccc2NC3c2ccccc2C(F)(F)F)cc1OC` (stereo unspecified), for which the survival is 96%. Regarding `O=C1CC(c2ccccc2)CC2=C1C(c1c(F)cccc1Cl)Nc1ccccc1N2` (stereo unspecified), the survival was 96%. Consider `CSc1ccc(C2Nc3ccccc3NC3=C2C(=O)CC(c2ccccc2)C3)cc1` (stereo unspecified), for which the survival is 96%. Take `CCOc1cccc(C2Nc3ccccc3NC3=C2C(=O)CC(c2ccc(OC)cc2)C3)c1` (stereo unspecified): the survival was 90%. Then `COc1ccc(C2CC(=O)C3=C(C2)Nc2ccccc2NC3c2cccc(Br)c2)cc1OC` (stereo unspecified), with 96%; and `COc1ccc(C2CC(=O)C3=C(C2)Nc2ccccc2NC3c2cc(C)ccc2C)cc1` (stereo unspecified), with 95%.
